Positions count from the first letter of the chain named.
Assays:
[1] = target: T1, HEK-293 cells expressing a G810R mutant RET Kif5b-RET fusion protein (Homo sapiens, UniProt P07949, G810R); assay: RET G810R Mutant Cell Assay (phospho-RET Tyr1062); assay type: cell-based; details: HEK-293 Kif5b-RET G810R, 1 hour incubation, phospho-RET normalized to GAPDH
T1 construct: KIF5B (N-terminal portion incl. coiled-coil); expressed in transfected cells; host or cells: HEK-293; the other entry of the earlier key: KIF5B (P33176, Kinesin-1 heavy chain)
T1 sequence (P07949 713-1063 G810R limits assumed): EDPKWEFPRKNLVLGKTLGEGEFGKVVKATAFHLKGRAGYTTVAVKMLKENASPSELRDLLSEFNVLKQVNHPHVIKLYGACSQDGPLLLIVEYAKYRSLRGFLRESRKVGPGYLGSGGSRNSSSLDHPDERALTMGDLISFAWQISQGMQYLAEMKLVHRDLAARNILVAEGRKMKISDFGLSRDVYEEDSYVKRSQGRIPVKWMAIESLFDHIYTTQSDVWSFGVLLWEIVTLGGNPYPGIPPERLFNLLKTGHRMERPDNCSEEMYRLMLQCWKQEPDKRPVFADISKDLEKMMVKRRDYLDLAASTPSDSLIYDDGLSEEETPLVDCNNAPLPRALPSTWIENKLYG
Method: (§1) The cellular potency of compounds inhibiting RET kinase were determined in HEK-293 cells expressing a G810R or G810S mutant RET Kif5b-RET fusion protein. Briefly, HEK-293 cells expressing a G810R or G810S mutant RET Kif5b-RET fusion protein were plated at 50K cells/well in 96 well poly-D-Lysine coated plates the day prior to the assay. The cells were incubated for 1 hour with test compound in DMEM (Dulbecco's Modified Eagle Medium) at a final DMSO concentration of 0.5%. […] After 1 hour the media was removed, the cells were fixed with 3.8% formaldehyde for 20 min, washed with PBS, and permeabilized for 10 min with 100% methanol. The plates were then washed with PBS-0.05% Tween20, and blocked with LI-COR Blocking solution (LI-COR Catalog No. 927-40000) for 1 hour. Plates were washed with PBS-0.05% Tween20, then incubated with anti-phospho-RET (Tyr1062) (Santa Cruz Catalog No. sc-20252-R) antibody and anti-GAPDH (Millipore Catalog No. MAB374) antibody for 2 hours. The plates were washed with PBS-0.05% Tween20, and incubated with anti-rabbit 680 (Molecular Probes Catalog No. A21109) and anti-mouse 800 (LI-COR Catalog No. 926-32210) secondary antibodies for 1 hour. All antibodies were diluted in LI-COR Block containing 0.05% Tween. The plates were washed with PBS-0.05% Tween20,100 μL PBS was added to each well, and the plates were read on a LI-COR Aerius fluorescent plate reader. The phospho-RET signal was normalized to the GAPDH signal. […] The POC values are fit to a 4 parameter logistic curve. The IC50 value is the point where the curve crosses 50 POC.

[2] = target: T2, HEK-293 cells expressing a Kif5b-RET fusion protein (Homo sapiens, UniProt P07949); assay: RET Cell Assay (phospho-RET Tyr1062); assay type: cell-based; details: HEK-293 Kif5b-RET, 1 hour incubation, phospho-RET normalized to GAPDH; read-out: KIF5B-RET pTYR1062 Cell IC50
T2 construct: KIF5B (N-terminal portion incl. coiled-coil); expressed in transfected cells; host or cells: HEK-293; the other entry of the earlier key: KIF5B (P33176, Kinesin-1 heavy chain)
T2 sequence (P07949 713-1063 limits assumed): T1 sequence (P07949 713-1063 G810R limits assumed) with R98G
Method: as §1, with “a” for “a G810R or G810S mutant RET”, “PBS is” for “PBS was”, “values were” for “values are”

[3] = target: G810S mutant RET kinase (Homo sapiens, UniProt P07949, G810S); assay: biochemical;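 also: HTRF KinEASE-TK kinase assay with recombinant enzyme, 1 h at 22 °C, dual-wavelength ratiometric read-out, percent of control (DMSO-only = 100, pre-quenched reaction = 0)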
G810S mutant RET kinase, sequence (P07949 29-1114 G810S): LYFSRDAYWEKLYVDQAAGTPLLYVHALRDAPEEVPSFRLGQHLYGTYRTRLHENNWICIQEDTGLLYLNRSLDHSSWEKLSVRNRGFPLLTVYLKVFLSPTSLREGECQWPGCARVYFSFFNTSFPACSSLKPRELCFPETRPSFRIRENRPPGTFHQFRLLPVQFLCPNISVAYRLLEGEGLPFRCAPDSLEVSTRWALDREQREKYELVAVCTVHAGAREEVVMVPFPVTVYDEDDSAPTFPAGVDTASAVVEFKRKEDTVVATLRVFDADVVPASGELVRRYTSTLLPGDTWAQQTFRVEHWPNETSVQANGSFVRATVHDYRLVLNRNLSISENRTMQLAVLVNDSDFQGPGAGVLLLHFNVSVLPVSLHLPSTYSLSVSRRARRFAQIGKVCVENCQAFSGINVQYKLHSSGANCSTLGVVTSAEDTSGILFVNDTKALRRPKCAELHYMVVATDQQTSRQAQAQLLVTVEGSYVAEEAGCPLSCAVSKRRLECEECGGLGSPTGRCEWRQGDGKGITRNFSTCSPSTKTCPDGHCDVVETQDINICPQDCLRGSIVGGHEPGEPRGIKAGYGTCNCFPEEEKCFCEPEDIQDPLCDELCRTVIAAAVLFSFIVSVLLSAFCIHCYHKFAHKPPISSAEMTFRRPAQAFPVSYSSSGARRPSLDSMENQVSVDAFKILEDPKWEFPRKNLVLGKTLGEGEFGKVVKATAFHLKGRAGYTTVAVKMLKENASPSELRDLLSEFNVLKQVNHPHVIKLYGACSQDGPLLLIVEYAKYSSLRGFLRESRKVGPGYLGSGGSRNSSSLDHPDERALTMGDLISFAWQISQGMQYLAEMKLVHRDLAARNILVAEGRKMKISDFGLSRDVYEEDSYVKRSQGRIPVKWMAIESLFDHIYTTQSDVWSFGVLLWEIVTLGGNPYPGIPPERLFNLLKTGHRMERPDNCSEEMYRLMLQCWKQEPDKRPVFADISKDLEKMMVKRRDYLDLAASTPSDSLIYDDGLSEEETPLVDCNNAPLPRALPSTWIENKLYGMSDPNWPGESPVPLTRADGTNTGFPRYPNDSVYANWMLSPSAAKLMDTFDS

[4] = target: RET kinase V804M (Homo sapiens, UniProt P07949, V804M); assay: RET Enzyme Assay (CisBio HTRF KinEASE-TK), V804M; assay type: biochemical; details: read-out: RET V804M Enz FRET IC50
RET kinase V804M, sequence (P07949 29-1114 V804M): as the sequence (P07949 29-1114 G810S) above, with V776M, S782G counted along it

[5] = target: RET kinase Wild Type (Homo sapiens, UniProt P07949); assay: biochemical;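 also: HTRF kinase activity assay on RET enzyme, 1 h reaction at 22 °C, dual-wavelength readout as percent of control, DMSO-only wells as 100%, pre-quenched reactions as 0%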
RET kinase Wild Type, sequence (P07949 29-1114): as the sequence (P07949 29-1114 G810S) above, with S782G counted along it

[6] = target: G810R mutant RET kinase (Homo sapiens, UniProt P07949, G810R); assay: biochemical;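 also: HTRF KinEASE-TK enzymatic assay with 1 nM recombinant RET G810R, 1 h at 22 °C, dual-wavelength ratiometric readout, 100% control without compound, 0% from pre-quenched reactions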
G810R mutant RET kinase, sequence (P07949 29-1114 G810R): as the sequence (P07949 29-1114 G810S) above, with S782R counted along it
Method: The potency of compounds inhibiting several different RET kinase forms (Wild Type, V804M, G810R, & G810S) were determined using CisBio's HTRF® KinEASE™-TK assay technology. […] After a 1 hour incubation at 22° C., the extent of reaction was determined using a PerkinElmer EnVision multimode plate reader via HTRF dual wavelength detection, and the percent of control (POC) was calculated using a ratiometric emission factor. One hundred POC was determined using DMSO only samples (no compound present), and 0 POC was determined using pre-quenched control reactions.
The potency of a compound inhibiting G810R or G810S mutant RET kinase was determined using CisBio's HTRF® KinEASE™-TK assay technology. The assays contained G810R or G810S mutant RET produced at Array Biopharma, Inc. (1 nM enzyme). […] After a 1-h incubation at 22° C., the extent of reaction was determined using a PerkinElmer EnVision multimode plate reader via HTRF dual wavelength detection, and the percent of control (POC) was calculated using a ratiometric emission factor. One hundred POC was determined using no test compounds, and 0 POC was determined using pre-quenched control reactions.

[7] = target: T3, HEK-293 cells expressing a G810S mutant RET Kif5b-RET fusion protein (Homo sapiens, UniProt P07949, G810S); assay: RET G810S Mutant Cell Assay (phospho-RET Tyr1062); assay type: cell-based; details: HEK-293 Kif5b-RET G810S, 1 hour incubation, phospho-RET normalized to GAPDH
T3 construct: KIF5B (N-terminal portion incl. coiled-coil); expressed in transfected cells; host or cells: HEK-293
T3 sequence (P07949 713-1063 G810S limits assumed): T1 sequence (P07949 713-1063 G810R limits assumed) with R98S
Method: as §1

Row | Compound | IC50 [1] [µM] | IC50 [2] [µM] | IC50 [3] [µM] | IC50 [4] [µM] | IC50 [5] [µM] | IC50 [6] [µM] | IC50 [7] [µM]
1 | CCCN1Cc2c(c3c(N)ncnc3n2C(C)C)-c2noc(C3CC3)c2C1=O [Example 4] | 0.29 | 0.06 | 0.135 | 0.106 | 0.016 | 0.157 | –
2 | CC(C)n1c2c(c3c(N)ncnc31)-c1noc(C3CC3)c1C(=O)N(CC1CC1)C2 [Example 5, 11-amino-3-cyclopropyl-5-(cyclopropylmethyl)-7-isopropyl-6,7-dihydroisoxazolo[4,3-c]pyrimido[5′,4′:4,5]pyrrolo[3,2-e]azepin-4(5H)-one] | 0.459 | 0.075 | 0.138 | 0.099 | 0.017 | 0.157 | –
3 | CC(C)n1c2c(c3c(N)ncnc31)-c1noc(C3CC3)c1C(=O)N(Cc1ccccc1)C2 [Example 7, 11-amino-5-benzyl-3-cyclopropyl-7-isopropyl-6,7-dihydroisoxazolo[4,3-c]pyrimido[5′,4′:4,5]pyrrolo[3,2-e]azepin-4(5H)-one] | 0.66 | 0.135 | 0.356 | 0.34 | 0.091 | 0.171 | –
4 | CC(C)n1c2c(c3c(N)ncnc31)-c1noc(C3CC3)c1C(=O)N(CCc1ccccc1)C2 [Example 8, 11-amino-3-cyclopropyl-7-isopropyl-5-phenethyl-6,7-dihydroisoxazolo[4,3-c]pyrimido[5′,4′:4,5]pyrrolo[3,2-e]azepin-4(5H)-one] | 0.302 | 0.091 | 0.123 | 0.227 | 0.041 | 0.095 | –
5 | CC(C)n1c2c(c3c(N)ncnc31)-c1noc(C3CC3)c1S(=O)(=O)N(C)C2 [Example 22, 11-amino-3-cyclopropyl-7-isopropyl-5-methyl-6,7-dihydro-5H-isoxazolo[3,4-f]pyrimido[5′,4′:4,5]pyrrolo[2,3-d][1,2]thiazepine 4,4-dioxide] | 0.496 | 0.065 | 0.075 | 0.323 | 0.031 | 0.102 | –
6 | CC(C)n1c2c(c3c(N)ncnc31)-c1noc(C3CC3)c1C(=O)OC2 [Example 24, 11-amino-3-cyclopropyl-7-isopropyl-6,7-dihydro-4H-isoxazolo[3″,4″:5′,6′]oxepino[4′,3′:4,5]pyrrolo[2,3-d]pyrimidin-4-one] | 0.181 | 0.04 | 0.087 | 0.092 | 0.025 | 0.07 | –
7 | CC(C)n1c2c(c3c(N)ncnc31)-c1noc(C3CC3)c1C=CC2 [Example 30, 3-cyclopropyl-7-isopropyl-6,7-dihydroisoxazolo[4″,3″:6′,7′]cyclohepta[1′,2′:4,5]pyrrolo[2,3-d]pyrimidin-11-amine] | 2.16 | 0.155 | 0.3 | 0.259 | 0.093 | 0.18 | –
8 | CC(C)n1c2c(c3c(N)ncnc31)-c1noc(C3CC3)c1CN(S(C)(=O)=O)C2 [Example 35, 3-cyclopropyl-7-isopropyl-5-(methylsulfonyl)-4,5,6,7-tetrahydroisoxazolo[4,3-c]pyrimido[5′,4′:4,5]pyrrolo[3,2-e]azepin-11-amine 2,2,2-trifluoroacetate] | 0.831 | 0.035 | 0.11 | 0.114 | 0.047 | 0.124 | –
9 | CC(C)n1c2c(c3c(N)ncnc31)-c1ccc(C3CC3)cc1C(=O)NC2 [Example 47, 12-amino-3-cyclopropyl-8-isopropyl-7,8-dihydrobenzo[c]pyrimido[5′,4′:4,5]pyrrolo[3,2-e]azepin-5(6H)-one] | 1.95 | 0.134 | 0.303 | 9.37 | 0.112 | 0.269 | –
10 | CNC(=O)c1ccc2cc3n(c2c1)C(=O)NCc1c-3c2c(N)ncnc2n1C(C)C [Example 73, 1-Amino-5-isopropyl-N-methyl-8-oxo-5,6,7,8-tetrahydropyrimido[5″,4″:4′,5′]pyrrolo[2′,3′:5,6][1,3]diazepino[1,7-a]indole-11-carboxamide] | – | 13.9 | 2.48 | – | 0.531 | 2.74 | 16.7
11 | CC(C)n1c2c(c3c(N)ncnc31)-c1cc3ccc(C(=O)Nc4ccccn4)cc3n1CCC2 [Example 90, 1-amino-5-isopropyl-N-(pyridin-2-yl)-5,6,7,8-tetrahydropyrimido[5″,4″:4′,5′]pyrrolo[3′,2′: 3,4]azepino[1,2-a]indole-11-carboxamide] | – | 0.222 | 1.6 | – | 0.353 | 1.06 | 0.408
12 | CC(C)n1c2c(c3c(N)ncnc31)-c1cc3ccc(C(=O)Nc4cnn(C)c4)cc3n1CCC2 [Example 93, 1-amino-5-isopropyl-N-(1-methyl-1H-pyrazol-4-yl)-5,6,7,8-tetrahydropyrimido[5″,4″:4′,5′]pyrrolo[3′,2′: 3,4]azepino[1,2-a]indole-11-carboxamide] | – | 1 | 5.57 | – | 1.26 | 1.91 | 1
